According to PubChem BioAssay (NCI):
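Growth conditions: 96-well plates. Treatment: test compound, 48 hours, 5 concentrations. Analysis: linear interpolation between bracketing concentrations; unreached endpoints set to highest concentration. Abbreviation: GI50, concentration required for 50% inhibition of growth. At the TGI there is no net growth.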

Columns and labels:
Assay in all cases: NCI tumour cell line growth inhibition, 48 h
[1] = tested on: A498 renal
[2] = tested on: A549 NSCLC
[3] = tested on: CAKI-1 renal
[4] = tested on: CCRF-CEM leukemia
[5] = tested on: COLO 205 colon
[6] = tested on: DLD-1 colon
[7] = tested on: DMS 114 small cell lung
[8] = tested on: DMS 273 small cell lung
[9] = tested on: EKVX NSCLC
[10] = tested on: HCC-2998 colon
[11] = tested on: HCT-116 colon
[12] = tested on: HCT-15 colon
[13] = tested on: HL-60(TB) leukemia
[14] = tested on: HOP-18 NSCLC
[15] = tested on: HOP-92 NSCLC
[16] = tested on: HT29 colon
[17] = tested on: IGROV1 ovarian
[18] = tested on: K-562 leukemia
[19] = tested on: KM12 colon
[20] = tested on: KM20L2 colon
[21] = tested on: LOX IMVI melanoma
[22] = tested on: M19-MEL melanoma
[23] = tested on: MALME-3M melanoma
[24] = tested on: MCF7 breast
[25] = tested on: MOLT-4 leukemia
[26] = tested on: NCI-H226 lung
[27] = tested on: NCI-H23 lung
[28] = tested on: NCI-H460 lung
[29] = tested on: NCI-H522 lung
[30] = tested on: NCI/ADR-RES ovarian
[31] = tested on: OVCAR-3 ovarian
[32] = tested on: OVCAR-4 ovarian
[33] = tested on: OVCAR-5 ovarian
[34] = tested on: OVCAR-8 ovarian
[35] = tested on: P388 leukemia
[36] = tested on: P388/ADR leukemia
[37] = tested on: RPMI-8226 leukemia
[38] = tested on: RXF 393 renal
[39] = tested on: SF-268 CNS
[40] = tested on: SF-295 CNS
[41] = tested on: SF-539 CNS
[42] = tested on: SK-MEL-2 melanoma
[43] = tested on: SK-MEL-28 melanoma
[44] = tested on: SK-MEL-5 melanoma
[45] = tested on: SK-OV-3 ovarian
[46] = tested on: SN12C renal
[47] = tested on: SN12K1 renal
[48] = tested on: SNB-19 CNS
[49] = tested on: SNB-75 CNS
[50] = tested on: SNB-78 CNS
[51] = tested on: SW-620 colon
[52] = tested on: U251 CNS
[53] = tested on: UACC-257 melanoma
[54] = tested on: UACC-62 melanoma
[55] = tested on: UO-31 renal
[56] = tested on: HOP-62 NSCLC
[57] = tested on: HS 578T breast
[58] = tested on: M14 melanoma
[59] = tested on: MDA-MB-435
[60] = tested on: MDA-N
[61] = tested on: SR leukemia
[62] = tested on: 786-0 renal
[63] = tested on: ACHN renal
[64] = tested on: LXFL 529 NSCLC
[65] = tested on: RXF-631 renal
[66] = tested on: TK-10 renal
[67] = tested on: XF 498 CNS

CC1(C)N=C(N)N=C(N)N1c1ccc(CCc2ccccc2)cc1
TGI [1]: > 100 µM | TGI [2]: > 100 µM | TGI [3]: > 100 µM | TGI [4]: > 100 µM | TGI [5]: 24.1 µM | TGI [6]: > 100 µM | TGI [7]: 52.5 µM | TGI [8]: 17.5 µM | TGI [9]: 91.5 µM | TGI [10]: 42.1 µM | TGI [11]: > 100 µM | TGI [12]: > 100 µM | TGI [13]: 49.1 µM | TGI [14]: 97.3 µM | TGI [15]: 79.7 µM | TGI [16]: > 100 µM | TGI [17]: 5.28 µM | TGI [18]: > 100 µM | TGI [19]: > 43.1 µM | TGI [20]: > 100 µM | TGI [21]: > 100 µM | TGI [22]: 38.7 µM | TGI [23]: > 80.2 µM | TGI [24]: > 76.7 µM | TGI [25]: > 100 µM | TGI [26]: 59.3 µM | TGI [27]: > 100 µM | TGI [28]: > 100 µM | TGI [29]: 33.9 µM | TGI [30]: > 100 µM | TGI [31]: > 80.6 µM | TGI [32]: > 100 µM | TGI [33]: > 88.2 µM | TGI [34]: > 100 µM | TGI [35]: 12.3 µM | TGI [36]: > 100 µM | TGI [37]: > 100 µM | TGI [38]: > 100 µM | TGI [39]: > 65 µM | TGI [40]: > 100 µM | TGI [41]: 82.8 µM | TGI [42]: > 100 µM | TGI [43]: > 86.7 µM | TGI [44]: 9.63 µM | TGI [45]: > 100 µM | TGI [46]: > 78.1 µM | TGI [47]: > 100 µM | TGI [48]: > 41.1 µM | TGI [49]: > 94.3 µM | TGI [50]: > 100 µM | TGI [51]: > 100 µM | TGI [52]: > 100 µM | TGI [53]: 32 µM | TGI [54]: > 100 µM | TGI [55]: > 100 µM

CCC(/C=C/C1OC(=O)C=CC1C)=C\C(C)C/C=C/C(C)=C/C(C)C(=O)C(C)C(O)C(C)C/C(C)=C/C(=O)O (stereo not drawn)
GI50 [1]: 1.31 pM | GI50 [2]: 0.0164 nM | TGI [2]: 3.96 µM | GI50 [3]: < 1 pM | GI50 [4]: < 1 pM | GI50 [5]: 7.52 pM | TGI [6]: 35.8 µM | TGI [7]: 4.18 µM | TGI [8]: 27.1 µM | GI50 [9]: 1.29 µM | TGI [9]: 11.4 µM | GI50 [10]: 2.44 µM | GI50 [11]: < 1 pM | GI50 [12]: 1.72 pM | GI50 [13]: < 1 pM | TGI [14]: 16.3 µM | GI50 [56]: 0.0236 nM | GI50 [15]: 5.32 µM | TGI [57]: 0.000594 µM | GI50 [16]: 4.95 µM | TGI [16]: 13 µM | GI50 [17]: 7.48 pM | TGI [17]: 16 µM | GI50 [18]: < 1 pM | TGI [20]: 8.33 µM | TGI [21]: 0.00119 µM | TGI [58]: 0.0368 nM | TGI [22]: 6.49 µM | GI50 [23]: 0.000217 µM | TGI [23]: 6.29 µM | GI50 [24]: < 1 pM | TGI [59]: 0.0264 nM | TGI [60]: 0.000118 µM | GI50 [25]: 2.33 pM | GI50 [26]: 1.72 pM | GI50 [27]: 6.52 pM | TGI [27]: 3.87 µM | GI50 [29]: 6.22 pM | GI50 [30]: 0.701 µM | TGI [30]: 4.15 µM | GI50 [31]: 0.0145 nM | GI50 [32]: < 1 pM | GI50 [33]: < 1 pM | TGI [33]: 15.5 µM | GI50 [34]: 1.54 pM | TGI [34]: 9.77 µM | TGI [35]: 6.6 µM | GI50 [37]: 3.11 pM | GI50 [38]: < 1 pM | TGI [38]: 3.56 µM | GI50 [39]: 1.89 µM | TGI [39]: 7.64 µM | GI50 [40]: 0.0179 nM | TGI [40]: 2.39 µM | GI50 [41]: 2.02 pM | GI50 [42]: 0.0281 nM | GI50 [43]: 4.51 pM | GI50 [44]: 0.408 µM | GI50 [45]: 0.0954 nM | TGI [45]: 14.3 µM | GI50 [46]: 0.0696 nM | TGI [46]: 12 µM | TGI [47]: 4.74 µM | GI50 [48]: 0.0253 nM | TGI [48]: 13.2 µM | TGI [49]: 7.17 µM | TGI [50]: 14.3 µM | TGI [61]: 0.0228 nM | GI50 [51]: 2.44 pM | TGI [51]: 6.29 µM | GI50 [52]: < 1 pM | TGI [52]: 5.89 µM | GI50 [53]: 0.000294 µM | TGI [53]: 6.25 µM | GI50 [54]: 2.23 pM | GI50 [55]: 0.0312 nM

Cc1cc(Cl)ccc1NC(=O)C(=O)Cc1nc2ccccc2o1
TGI [62]: > 100 µM | TGI [1]: > 100 µM | TGI [2]: > 100 µM | TGI [63]: > 100 µM | TGI [3]: > 100 µM | TGI [4]: > 100 µM | TGI [5]: > 100 µM | TGI [6]: > 100 µM | TGI [7]: > 100 µM | TGI [8]: > 100 µM | TGI [9]: > 100 µM | TGI [10]: > 100 µM | TGI [11]: > 100 µM | TGI [12]: > 100 µM | TGI [13]: > 100 µM | TGI [14]: > 100 µM | TGI [56]: > 100 µM | TGI [15]: > 100 µM | TGI [16]: > 100 µM | TGI [17]: > 100 µM | TGI [18]: > 100 µM | TGI [19]: > 100 µM | TGI [20]: > 100 µM | TGI [21]: > 100 µM | TGI [64]: > 100 µM | TGI [58]: > 100000 nM | TGI [22]: > 100 µM | TGI [23]: > 100 µM | TGI [25]: > 100 µM | TGI [27]: > 100 µM | TGI [28]: > 100 µM | TGI [29]: > 100 µM | TGI [31]: > 100 µM | TGI [32]: > 100 µM | TGI [33]: > 100 µM | TGI [34]: > 100 µM | TGI [37]: > 100 µM | TGI [38]: > 100 µM | TGI [65]: > 100 µM | TGI [39]: > 100 µM | TGI [40]: > 100 µM | TGI [41]: > 100 µM | TGI [42]: > 100 µM | TGI [43]: > 100 µM | TGI [44]: > 100 µM | TGI [45]: > 100 µM | TGI [46]: > 100 µM | TGI [48]: > 100 µM | TGI [49]: > 100 µM | TGI [50]: > 100 µM | TGI [51]: > 100 µM | TGI [66]: > 100 µM | TGI [52]: > 100 µM | TGI [53]: > 100 µM | TGI [54]: > 100 µM | TGI [55]: > 100 µM | TGI [67]: > 100 µM
